Measured values taken from publication PMC2784364, “VX-166: a novel potent small molecule caspase inhibitor as a potential therapy for sepsis” (Critical Care, 2009).
pIC50: −log10 of the molar value. Peptide text beside a SMILES is read from it. * marks the point of attachment. Cbz = O=C(OCc1ccccc1)*; CH2F = FC*

Experiments:
[1] = test system: IL-2 release from peripheral blood mononuclear cells; assay: IL-2 release from anti-CD3/CD28 stimulated PBMC; format: cell-based, human; details: anti-CD3/CD28 stimulated human PBMC, 24 hours; read-out: IC50, inhibition of IL-2 release
Experimental: PBMC from healthy donors were isolated as described above. To the wells of a 96-well plate previously coated with 1.5 μg/ml anti-hCD3 (Serotec, Kidlington, UK), 5 × 10^5 cells/ml and 1 μg/ml anti-hCD28 (BD Biosciences, Oxford, UK) were added. Plates were then incubated for 24 hours in the presence or absence of VX-166 or the calcineurin inhibitor FK506 (Merck Biosciences Ltd., Nottingham, UK). IL-2 release into the supernatant was subsequently determined by ELISA (R&D Systems, Abingdon, UK) following the manufacturer's instructions.

[2] = test system: IL-2 release from activated T-cells; set-up: method as in PMID 10601363; details: 50 μM; cited from earlier work
Jurkat cells = assay: Anti-Fas induced apoptosis in Jurkat cells, Annexin V; format: cell-based, human; details: Fas-induced apoptosis, readout not specified, data not shown; read-out: IC50 in Fas-assay
Experimental: Jurkat cells were obtained from LGC Standards (Teddington, UK) and were grown in RPMI 1640, 10% FCS, 2 mM L-glutamine, 100 U/ml penicillin and 0.1 mg/ml streptomycin (all from Sigma Aldrich Ltd., Poole, UK) at 37°C in 5% CO2/95% humidity. Receptor- or stress-mediated apoptosis (2 × 10^5 cells/ml) was induced by addition of either anti-Fas antibody CH-11 (10 ng/ml, Millipore UK Ltd., Watford, UK), TNF-α (20 ng/ml, R&D Systems, Abingdon, UK) with cycloheximide (112 ng/ml, Sigma Aldrich Ltd., Poole, UK) or staurosporine (350 ng/ml, Sigma Aldrich Ltd., Poole, UK). VX-166 was diluted into DMSO (10 mM), further diluted in media and added at a range of concentrations. Cells were then incubated for 18 hours. Apoptotic cells were then labelled with Cy5-conjugated Annexin-V (BD Biosciences, Oxford, UK) and detected using a FMAT™ 8100 Fluorimetric Microassay Technology Reader (Applied Biosystems, Warrington, UK). For the experiments using anti-Fas antibody, apoptosis was additionally measured using a Cell Death Detection ELISA kit (Roche Diagnostics Ltd., Lewes, UK) following the manufacturer's instructions.

| pIC50 [1] | Compound | block of IL-2 release from activated T-cells [2] | pIC50 (Jurkat cells) |
| --- | --- | --- | --- |
| 9.70 | C=CC[C@@H]1/C=C(\C)C[C@H](C)C[C@H](OC)[C@H]2O[C@@](O)(C(=O)C(=O)N3CCCC[C@H]3C(=O)O[C@H](/C(C)=C/[C@@H]3CC[C@@H](O)[C@H](OC)C3)[C@H](C)[C@@H](O)CC1=O)[C@H](C)C[C@@H]2OC [FK506, reference compound] |  |  |
|  | COC(=O)C[C@H](NC(=O)[C@H](C)NC(=O)[C@@H](NC(=O)OCc1ccccc1)C(C)C)C(=O)CF [zVAD-FMK, reference compound] (Cbz-Val-Ala-Asp(OMe)-CH2F) | block IL-2 release | 6.64 |
|  | IETD-FMK | block IL-2 release |  |
